Assay results published in publication PMC12396409, “Screening and hit evaluation of a microbial metabolite library against the pathogenic Plasmodium falciparum and Toxoplasma gondii parasites” (International Journal for Parasitology: Drugs and Drug …, 2025).
Where two headings read alike, the source gives them in different places. Where a SMILES comes first, the peptide text is derived from it. [ ]: non-standard residue; d: D form. d(aIle) = CC[C@H](C)[C@@H](N)C(=O)O; NMeL = CN[C@@H](CC(C)C)C(=O)O; Hiv = CC(C)[C@H](O)C(=O)O

Tests used:
[1] = tested on: T. gondii RH strain (RH-Tub-eYFP) tachyzoites; assay: microbe, parasite or virus in culture; assay type: cell-based, Toxoplasma gondii; details: 72 h; for percent parasite growth at 2 µg/mL: Toxoplasma gondii
[2] = tested on: P. falciparum 3D7 parasites; assay: P. falciparum growth inhibition assay, 2-cycle (120 h treatment), delayed-death screen and dose-response; assay type: cell-based, Plasmodium falciparum; details: for Pf_120h_%Growth_Rep1 / Pf_120h_%Growth_Rep2 / 2) Growth (%) at 120 h / activity at 2 µg/mL: 120 h; for activity at 2 µg/mL: Plasmodium falciparum
[3] = tested on: P. falciparum 3D7 parasites; assay: P. falciparum growth inhibition assay, 1-cycle (72 h treatment), SYBR DNA staining (library screen at 2 μg/mL and dose-response); assay type: cell-based, Plasmodium falciparum; details: 72 h; for activity at 2 µg/mL: Plasmodium falciparum
[4] = library screen at 2 μg/mL, % growth, replicate 1
[5] = library screen at 2 μg/mL, % growth, replicate 2
[6] = P. falciparum, parasite screen 2 μg/mL, % growth, replicate 1
[7] = P. falciparum, parasite screen 2 μg/mL, % growth, replicate 2
[8] = T. gondii, screen at 2 μg/mL, replicate 1, read-out: Tg_72h_%Growth_Rep1
[9] = T. gondii, screen at 2 μg/mL, replicate 2, read-out: Tg_72h_%Growth_Rep2
[10] = T. gondii, screen at 2 μg/mL, replicate 1
[11] = T. gondii, screen at 2 μg/mL, replicate 2
[12] = P. falciparum, screen at 2 μg/mL, replicate 1
[13] = P. falciparum, screen at 2 μg/mL, replicate 2

Q: For `COC1=C(N)C(=O)c2nc(-c3nc(C(=O)O)c(C)c(-c4cccc(OC)c4O)c3N)ccc2C1=O` [Desmethoxystreptonigrin, 10'-], which Tg_72h_%Growth_Rep1 [1, 4] is on record?
A: Its Tg_72h_%Growth_Rep1 is 4.18%.

Q: What about the Tg_72h_%Growth_Rep2 [1, 5] of the same compound?
A: The Tg_72h_%Growth_Rep2 was 4.20%.

Q: And the Pf_120h_%Growth_Rep1 [2, 4]?
A: The Pf_120h_%Growth_Rep1 was 0.15%.

Q: What about the Pf_120h_%Growth_Rep2 [2, 5] of the same compound?
A: Its Pf_120h_%Growth_Rep2 is 8.14%.

Q: What about the Pf_72h_%Growth_Rep1 [3, 4] of the same compound?
A: Its Pf_72h_%Growth_Rep1 is 2.87%.

Q: What about the Pf_72h_%Growth_Rep2 [3, 5] of the same compound?
A: The Pf_72h_%Growth_Rep2 was 4.81%.

Q: For `C/C=C(\C)C(=O)OC[C@H]1O[C@H](O[C@H]2O[C@H](COC(=O)/C(C)=C/C)[C@@H](O)[C@H](O)[C@H]2O[C@@H]2O[C@H](CO)[C@@H](OC(=O)/C(C)=C/C)[C@H](OC(=O)/C(C)=C/C)[C@H]2O)[C@H](O[C@@H]2O[C@H](CO)[C@@H](OC(=O)/C(C)=C/C)[C@H](OC(=O)/C(C)=C/C)[C@H]2O)[C@@H](O)[C@@H]1O` [Actinotetraose Hexatiglate], which Tg_72h_%Growth_Rep1 [1, 4] is on record?
A: Its Tg_72h_%Growth_Rep1 is 97.33%.

Q: What about the Tg_72h_%Growth_Rep2 [1, 5] of the same compound?
A: Its Tg_72h_%Growth_Rep2 is 100.02%.

Q: And the “2) Growth (%) at 120 h” value ([2]; P. falciparum, 2 μg/mL)?
A: The value was 19.22%.

Q: What about the “3) Fold change (72 h/120 h)” value ([2]; P. falciparum, growth at 72 h / growth at 120 h, 2 μg/mL) of the same compound?
A: The value was 2.4.

Q: What about the Pf_120h_%Growth_Rep1 [2, 4] of the same compound?
A: The Pf_120h_%Growth_Rep1 was 16.78%.

Q: What about the Pf_120h_%Growth_Rep2 [2, 5] of the same compound?
A: Its Pf_120h_%Growth_Rep2 is 21.66%.

Q: And the “1) Growth (%) at 72 h” value ([3]; P. falciparum, 2 μg/mL)?
A: The value was 46.54%.

Q: And the Pf_72h_%Growth_Rep1 [3, 4]?
A: The Pf_72h_%Growth_Rep1 was 45.55%.

Q: What about the Pf_72h_%Growth_Rep2 [3, 5] of the same compound?
A: The Pf_72h_%Growth_Rep2 was 47.53%.

Q: `CC[C@H](C)[C@H]1NC(=O)[C@H](C(C)C)OC(=O)[C@H](CC(C)C)N(C)C(=O)[C@H](C(C)C)NC(=O)[C@H](C(C)C)OC(=O)[C@@H](CC(C)C)NC1=O` [Sporidesmolide II] (cyclo([Hiv]V[NMeL][Hiv][d(aIle)][dL])) was tested. Which Tg_72h_%Growth_Rep1 ([1]; T. gondii, parasite screen 2 μg/mL, % growth, replicate 1) did it give?
A: Its Tg_72h_%Growth_Rep1 is 96.52%.

Q: What about the Tg_72h_%Growth_Rep2 ([1]; T. gondii, parasite screen 2 μg/mL, % growth, replicate 2) of the same compound?
A: The Tg_72h_%Growth_Rep2 was 86.44%.

Q: And the Pf_120h_%Growth_Rep1 [2, 6]?
A: The Pf_120h_%Growth_Rep1 was 86.28%.

Q: What about the Pf_120h_%Growth_Rep2 [2, 7] of the same compound?
A: Its Pf_120h_%Growth_Rep2 is 130.73%.

Q: And the Pf_72h_%Growth_Rep1 [3, 6]?
A: Its Pf_72h_%Growth_Rep1 is 88.48%.

Q: What about the Pf_72h_%Growth_Rep2 [3, 7] of the same compound?
A: The Pf_72h_%Growth_Rep2 was 54.25%.

Q: Which results are given for `CCCCCCCCCCCCCCCC(=O)OC[C@@H](NC(=O)C(Cl)Cl)[C@H](O)c1ccc([N+](=O)[O-])cc1` [Chloramphenicol palmitate]?
A: percent parasite growth at 2 µg/mL [1, 8]: 153%; percent parasite growth at 2 µg/mL [1, 9]: 98.2%; activity at 2 µg/mL ([2]; 3D7, P. falciparum, screen at 2 μg/mL, replicate 1, read-out: Pf_120h_%Growth_Rep1): 101%; activity at 2 µg/mL ([2]; 3D7, P. falciparum, screen at 2 μg/mL, replicate 2, read-out: Pf_120h_%Growth_Rep2): 90.8%; activity at 2 µg/mL ([3]; 3D7, P. falciparum, screen at 2 μg/mL, replicate 1, read-out: Pf_72h_%Growth_Rep1): 83.7%; activity at 2 µg/mL ([3]; 3D7, P. falciparum, screen at 2 μg/mL, replicate 2, read-out: Pf_72h_%Growth_Rep2): 81.8%

Q: For `C=CC(C)(C)[C@@]12C[C@H]3C(=O)N/C(=C/c4c[nH]cn4)C(=O)N3[C@@H]1Nc1ccccc12` [Roquefortine C], which percent parasite growth at 2 µg/mL ([1]; T. gondii, parasite screen 2 μg/mL, % growth, replicate 1, read-out: Tg_72h_%Growth_Rep1) is on record?
A: Its percent parasite growth at 2 µg/mL is 112%.

Q: What about the percent parasite growth at 2 µg/mL ([1]; T. gondii, parasite screen 2 μg/mL, % growth, replicate 2, read-out: Tg_72h_%Growth_Rep2) of the same compound?
A: The percent parasite growth at 2 µg/mL was 89.5%.

Q: And the activity at 2 µg/mL ([2]; 3D7, P. falciparum, parasite screen 2 μg/mL, % growth, replicate 1, read-out: Pf_120h_%Growth_Rep1)?
A: The activity at 2 µg/mL was 73.1%.

Q: And the activity at 2 µg/mL ([2]; 3D7, P. falciparum, parasite screen 2 μg/mL, % growth, replicate 2, read-out: Pf_120h_%Growth_Rep2)?
A: Its activity at 2 µg/mL is 98.8%.

Q: What about the activity at 2 µg/mL ([3]; 3D7, P. falciparum, parasite screen 2 μg/mL, % growth, replicate 1, read-out: Pf_72h_%Growth_Rep1) of the same compound?
A: Its activity at 2 µg/mL is 76.2%.

Q: What about the activity at 2 µg/mL ([3]; 3D7, P. falciparum, parasite screen 2 μg/mL, % growth, replicate 2, read-out: Pf_72h_%Growth_Rep2) of the same compound?
A: Its activity at 2 µg/mL is 78.8%.

Q: Which results are given for `C=Cc1cc(OC)c2c(c1)c(=O)oc1c2cc(OC)c2c(O)ccc([C@H]3O[C@@H](C)[C@@H](O)[C@](C)(O)[C@@H]3O)c21` [Chrysomycin A]?
A: Tg_72h_%Growth_Rep1 [1, 10]: 53.94%; Tg_72h_%Growth_Rep2 [1, 11]: 65.86%; 2) Growth (%) at 120 h ([2]; P. falciparum, 2 μg/mL): -1.07%; Pf_120h_%Growth_Rep1 [2, 12]: 6.31%; Pf_120h_%Growth_Rep2 [2, 13]: -8.44%; 1) Growth (%) at 72 h ([3]; P. falciparum, 2 μg/mL): 36.94%; Mean ([3]; P. falciparum, 2 μg/mL, mean of both replicates, growth (% of control)): 36.94; Pf_72h_%Growth_Rep1 [3, 12]: 16.21%; Pf_72h_%Growth_Rep2 [3, 13]: 57.66%

Q: With `Cc1cc(=O)c2c(o1)-c1c(cc(O)c(O)c1C(=O)O)OC2` [Citromycetin] as the compound, how does the Tg_72h_%Growth_Rep1 [1, 10] read?
A: Its Tg_72h_%Growth_Rep1 is 134.75%.

Q: And the Tg_72h_%Growth_Rep2 [1, 11]?
A: Its Tg_72h_%Growth_Rep2 is 97.97%.

Q: What about the Pf_120h_%Growth_Rep1 [2, 12] of the same compound?
A: The Pf_120h_%Growth_Rep1 was 103.91%.

Q: And the Pf_120h_%Growth_Rep2 [2, 13]?
A: Its Pf_120h_%Growth_Rep2 is 96.05%.

Q: What about the Pf_72h_%Growth_Rep1 [3, 12] of the same compound?
A: The Pf_72h_%Growth_Rep1 was 89.81%.

Q: And the Pf_72h_%Growth_Rep2 [3, 13]?
A: The Pf_72h_%Growth_Rep2 was 87.50%.

Q: For `O=C(O)/C=C/c1c[nH]cn1` [Urocanic acid], which percent parasite growth at 2 µg/mL [1, 8] is on record?
A: Its percent parasite growth at 2 µg/mL is 81%.

Q: And the percent parasite growth at 2 µg/mL [1, 9]?
A: The percent parasite growth at 2 µg/mL was 70.9%.

Q: And the activity at 2 µg/mL ([2]; 3D7, 120 h, P. falciparum, screen at 2 μg/mL, replicate 1, read-out: Pf_120h_%Growth_Rep1)?
A: The activity at 2 µg/mL was 81.3%.

Q: What about the activity at 2 µg/mL ([2]; 3D7, 120 h, P. falciparum, screen at 2 μg/mL, replicate 2, read-out: Pf_120h_%Growth_Rep2) of the same compound?
A: Its activity at 2 µg/mL is 51.9%.

Q: What about the activity at 2 µg/mL ([3]; 3D7, 72 h, P. falciparum, screen at 2 μg/mL, replicate 1, read-out: Pf_72h_%Growth_Rep1) of the same compound?
A: The activity at 2 µg/mL was 79.2%.

Q: What about the activity at 2 µg/mL ([3]; 3D7, 72 h, P. falciparum, screen at 2 μg/mL, replicate 2, read-out: Pf_72h_%Growth_Rep2) of the same compound?
A: The activity at 2 µg/mL was 89.3%.

Q: What does the source list for `CC(C)CCC[C@@H](C)[C@@H]1CC[C@]2(C)C3=C(CC[C@@]12C)[C@@]1(C)CC[C@H](O)C(C)(C)[C@@H]1CC3` [Dihydroeuphol]?
A: Tg_72h_%Growth_Rep1 [1, 4]: 139.10%; Tg_72h_%Growth_Rep2 [1, 5]: 102.23%; Pf_120h_%Growth_Rep1 [2, 4]: 82.20%; Pf_120h_%Growth_Rep2 [2, 5]: 96.98%; Pf_72h_%Growth_Rep1 [3, 4]: 82.89%; Pf_72h_%Growth_Rep2 [3, 5]: 91.07%
